Test results taken from patent publication US9120796B2, “B-lactamase inhibitor picoline salt” (Cubist Pharmaceuticals, Inc., priority 2013, dated 2015).
Where a name gives a salt, the structure may show the parent alone.

What was measured:
[1] = Stability of isolated solid picoline salt at 2 weeks; format: physicochemical; details: FIG. 23
Description: Also, the volume inefficiency, throughput bottlenecks, and impurity generation associated with the TBA to Na salt resin exchange process created the need for an improved step. Accordingly, there was a need for a stable solid that could be isolated, stored, and be used as needed to produce the desired sodium API in a reliable, scalable process. In screening different salt forms and examining the potential for crystallizations (as a means to isolate the salt forms), the TBA, pyridine, 5-ethyl-2-methylpyridine, and 2,6-lutidine forms of the API were not able to be successfully isolated in solid form.

[2] = Solubility characteristics of crystalline form; format: physicochemical; details: a particular (crystalline) form
Description: The compound of Formula (II) is the 2-picoline salt of (2S,5R)-2-(1,3,4-oxadiazol-2-yl)-7-oxo-1,6-diazabicyclo[3.2.1]octan-6-yl hydrogen sulfate, i.e., 2-methylpyridin-1-ium (2S,5R)-2-(1,3,4-oxadiazol-2-yl)-7-oxo-1,6-diazabicyclo[3.2.1]octan-6-yl sulfate.

[3] = Solution stability of salt forms (purity change relative to starting purity)
Description: As part of the program to improve the process for the manufacture of the sodium salt of (2S,5R)-2-(1,3,4-oxadiazol-2-yl)-7-oxo-1,6-diazabicyclo[3.2.1]octan-6-yl hydrogen sulfate, a new intermediate capable of isolation and utility in the production was sought.
Additionally, the picoline salt precursor was examined for solution stability as an alternative hold point for the process.

Row | Compound | stability of isolated solid [1] | solubility characteristics [2] | solution stability in dichloromethane solution ([3]; DCM, room temperature, compared with the TBA salt, FIGS. 22A and 22B) | stability in solution ([3]; in solution, early clinical productions) | solution stability in aqueous environments ([3]; aqueous solution, high dilution (~1 wt %), FIGS. 21A and 21B)
1 | O=C1N2C[C@@H](CC[C@H]2c2nnco2)N1OS(=O)(=O)O [Formula (II), 2-methylpyridin-1-ium (2S,5R)-2-(1,3,4-oxadiazol-2-yl)-7-oxo-1,6-diazabicyclo[3.2.1]octan-6-yl sulfate] | found to be stable | low solubility | significantly inferior to the TBA salt | unstable in solution | –
2 | tetrabutylammonium (2S,5R)-2-(1,3,4-oxadiazol-2-yl)-7-oxo-1,6-diazabicyclo[3.2.1]octan-6-yl sulfate [TBA salt, reference compound] | – | – | – | – | found to be a risk for long term scale-up
